# Measurements from publication PMC7817263, “Analysis of the Anti-Inflammatory and Analgesic Mechanism of Shiyifang Vinum Based on Network Pharmacology” (Evidence-based Complementary and Alternative Medicine : eCAM, 2021).
# Target: T1, COX-2 (Homo sapiens, UniProt P35354)
# T1 construct: purchased Beyotime Biotechnology (Shanghai, China)
# T1 sequence (P35354 18-604): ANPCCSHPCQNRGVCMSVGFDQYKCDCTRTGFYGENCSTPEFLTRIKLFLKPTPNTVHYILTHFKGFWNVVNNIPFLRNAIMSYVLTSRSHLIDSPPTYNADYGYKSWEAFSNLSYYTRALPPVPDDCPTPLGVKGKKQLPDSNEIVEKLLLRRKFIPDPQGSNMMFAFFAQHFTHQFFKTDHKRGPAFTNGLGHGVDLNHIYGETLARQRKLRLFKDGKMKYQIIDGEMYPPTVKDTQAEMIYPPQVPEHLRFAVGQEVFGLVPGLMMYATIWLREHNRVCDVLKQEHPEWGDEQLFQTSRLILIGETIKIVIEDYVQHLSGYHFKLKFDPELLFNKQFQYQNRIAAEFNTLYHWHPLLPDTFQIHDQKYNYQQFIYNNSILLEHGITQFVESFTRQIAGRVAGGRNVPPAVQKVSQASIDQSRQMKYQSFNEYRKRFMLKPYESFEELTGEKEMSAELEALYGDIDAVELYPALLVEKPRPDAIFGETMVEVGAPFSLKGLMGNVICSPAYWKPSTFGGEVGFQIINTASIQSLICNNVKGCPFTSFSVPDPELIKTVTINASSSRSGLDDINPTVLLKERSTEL
# Experiment: COX-2 inhibitor screening kit, in vitro enzyme activity test (fluorescence)
# Type: biochemical
# Conditions: inhibition of COX-2 enzyme activity, probit regression
# Method: The COX-2 inhibitory activities of four monomer compounds and Shiyifang Vinum were detected with the COX-2 inhibitor screening kit. The blank control, 100% enzyme activity control, positive inhibition control, and sample wells were prepared, with three repeat wells in each group.
row,SMILES,IC50 [µM]
1,"O=c1c(O)c(-c2ccc(O)cc2)oc2cc(O)cc(O)c12 [Kaempferol, kaempferol]",30.7
2,"O=c1cc(-c2ccc(O)c(O)c2)oc2cc(O)cc(O)c12 [Luteolin, luteolin]",10.8
3,"O=c1c(O)c(-c2ccc(O)c(O)c2)oc2cc(O)cc(O)c12 [Quercetin, quercetin]",3.96
